Consider 22 molecules from US12637453B2, “Pyrazolopyridine inhibitors of c-Jun-n-Terminal kinases and uses thereof” (Dana-Farber Cancer Institute, Inc., priority 2019, dated 2026).

Common to all, as to format: biochemical
In one test the target is JNK1 (Homo sapiens, UniProt P45983). The test is described as follows: IC50 assay for JNK kinase inhibition, JNK1.
A further test deals with JNK2 (Homo sapiens, UniProt P45984). Nature of the test: IC50 assay for JNK kinase inhibition, JNK2.
Another test addresses JNK3 (Homo sapiens, UniProt P53779). The test is described as follows: IC50 assay for JNK kinase inhibition, JNK3.

Sequence of JNK1 (P45983 whole entry): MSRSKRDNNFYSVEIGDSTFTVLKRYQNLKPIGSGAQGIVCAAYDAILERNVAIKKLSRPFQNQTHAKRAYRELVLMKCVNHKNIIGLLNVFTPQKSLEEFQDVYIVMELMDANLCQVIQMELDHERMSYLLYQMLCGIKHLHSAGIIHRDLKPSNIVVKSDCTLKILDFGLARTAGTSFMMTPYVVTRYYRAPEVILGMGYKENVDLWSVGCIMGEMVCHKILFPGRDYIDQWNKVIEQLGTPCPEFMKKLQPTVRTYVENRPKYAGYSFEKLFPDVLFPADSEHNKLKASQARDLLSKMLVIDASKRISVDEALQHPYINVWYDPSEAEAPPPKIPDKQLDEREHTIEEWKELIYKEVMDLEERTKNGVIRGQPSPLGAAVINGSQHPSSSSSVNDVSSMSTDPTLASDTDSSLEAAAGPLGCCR
Sequence of JNK2 (P45984 whole entry): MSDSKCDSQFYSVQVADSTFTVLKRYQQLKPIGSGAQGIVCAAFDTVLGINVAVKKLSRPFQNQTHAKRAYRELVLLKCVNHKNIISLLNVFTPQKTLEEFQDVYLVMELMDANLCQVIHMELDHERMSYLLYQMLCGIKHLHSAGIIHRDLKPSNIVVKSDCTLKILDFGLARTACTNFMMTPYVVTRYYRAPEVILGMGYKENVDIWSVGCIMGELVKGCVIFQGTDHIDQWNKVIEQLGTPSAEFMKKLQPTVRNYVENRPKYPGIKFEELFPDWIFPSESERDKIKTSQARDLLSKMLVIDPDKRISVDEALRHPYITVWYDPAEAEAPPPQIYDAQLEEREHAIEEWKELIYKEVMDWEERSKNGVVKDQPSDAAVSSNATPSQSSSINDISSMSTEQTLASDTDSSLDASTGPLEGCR
Sequence of JNK3 (P53779 whole entry): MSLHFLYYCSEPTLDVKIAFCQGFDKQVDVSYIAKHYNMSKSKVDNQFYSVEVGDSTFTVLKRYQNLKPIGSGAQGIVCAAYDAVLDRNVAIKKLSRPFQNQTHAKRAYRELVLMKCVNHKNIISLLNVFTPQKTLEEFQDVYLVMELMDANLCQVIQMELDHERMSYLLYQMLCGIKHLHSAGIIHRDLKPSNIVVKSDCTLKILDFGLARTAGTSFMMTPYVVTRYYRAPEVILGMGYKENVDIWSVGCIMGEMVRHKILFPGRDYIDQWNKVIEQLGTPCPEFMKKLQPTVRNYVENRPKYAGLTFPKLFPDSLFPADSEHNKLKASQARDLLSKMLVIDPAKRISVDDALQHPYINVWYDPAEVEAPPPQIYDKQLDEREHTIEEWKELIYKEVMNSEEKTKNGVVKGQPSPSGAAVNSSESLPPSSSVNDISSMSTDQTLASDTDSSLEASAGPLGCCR

Consider `CN(C)C/C=C/C(=O)Nc1ccc(C(=O)N2CCC[C@H](Nc3nccc(-c4c(-c5ccccc5)nn5ccccc45)n3)C2)cc1` [I-1, (S,E)-4-(dimethylamino)-N-(4-(3-((4-(2-phenylpyrazolo[1,5-a]pyridin-3-yl)pyrimidin-2-yl)amino)piperidine-1-carbonyl)phenyl)but-2-enamide], for which the IC50 at JNK1 was 44.7 nM; against JNK2 it was 3.65 nM; on JNK3 it was 2.36 nM.
On the same counts, the results for `CN(C)CCCC(=O)Nc1ccc(C(=O)N2CCC[C@H](Nc3nccc(-c4c(-c5ccccc5)nn5ccccc45)n3)C2)cc1` [I-2, (S)-4-(dimethylamino)-N-(4-(3-((4-(2-phenylpyrazolo[1,5-a]pyridin-3-yl)pyrimidin-2-yl)amino)piperidine-1-carbonyl)phenyl)butanamide] are 64 nM, 11 nM and 20 nM.
The matching figures for `C=CC(=O)Nc1ccc(C(=O)N2CCC[C@H](Nc3nccc(-c4c(-c5ccccc5)nn5ccccc45)n3)C2)cc1` [I-3, (S)-N-(4-(3-((4-(2-phenylpyrazolo[1,5-a]pyridin-3-yl)pyrimidin-2-yl)amino)piperidine-1-carbonyl)phenyl)acrylamide]: 26 nM, 5.67 nM and 16.2 nM.
The matching figures for `Nc1ccc(C(=O)N2CCC[C@H](Nc3nccc(-c4c(-c5ccccc5)nn5ccccc45)n3)C2)cc1` [I-4, (S)-(4-aminophenyl)(3-((4-(2-phenylpyrazolo[1,5-a]pyridin-3-yl)pyrimidin-2-yl)amino)piperidin-1-yl)methanone]: 21.4 nM, 2.88 nM and 22.5 nM.
Regarding `CN(C)C/C=C/C(=O)Nc1ccc(C(=O)N2CCC[C@@H](Nc3nccc(-c4c(-c5ccccc5)nn5ccccc45)n3)C2)cc1` [I-5, (R,E)-4-(dimethylamino)-N-(4-(3-((4-(2-phenylpyrazolo[1,5-a]pyridin-3-yl)pyrimidin-2-yl)amino)piperidine-1-carbonyl)phenyl)but-2-enamide], the IC50 against JNK1 stood at 569 nM; against JNK2, 24 nM; at JNK3, 15 nM.
On the same counts, the results for `CN(C)CCCC(=O)Nc1ccc(C(=O)N2CCC[C@@H](Nc3nccc(-c4c(-c5ccccc5)nn5ccccc45)n3)C2)cc1` [I-6, (R)-4-(dimethylamino)-N-(4-(3-((4-(2-phenylpyrazolo[1,5-a]pyridin-3-yl)pyrimidin-2-yl)amino)piperidine-1-carbonyl)phenyl)butanamide] are 278 nM, 40 nM and 1090 nM.
`CN(C)C/C=C/C(=O)Nc1ccc(C(=O)N2CC[C@@H](Nc3nccc(-c4c(-c5ccccc5)nn5ccccc45)n3)C2)cc1` [I-7, (R,E)-4-(dimethylamino)-N-(4-(3-((4-(2-phenylpyrazolo[1,5-a]pyridin-3-yl)pyrimidin-2-yl)amino)pyrrolidine-1-carbonyl)phenyl)but-2-enamide]: the values for the IC50 against JNK1, against JNK2 and on JNK3 were 12.5 nM, 2.75 nM and 25 nM, respectively.
As for `CN(C)CCCC(=O)Nc1ccc(C(=O)N2CC[C@@H](Nc3nccc(-c4c(-c5ccccc5)nn5ccccc45)n3)C2)cc1` [I-8, (R)-4-(dimethylamino)-N-(4-(3-((4-(2-phenylpyrazolo[1,5-a]pyridin-3-yl)pyrimidin-2-yl)amino)pyrrolidine-1-carbonyl)phenyl)butanamide], the IC50 against JNK1 stood at 73.4 nM; against JNK2, 5.59 nM; on JNK3, 21.4 nM.
The matching figures for `CN(C)C/C=C/C(=O)Nc1ccc(C(=O)N2CCCC[C@@H](Nc3nccc(-c4c(-c5ccccc5)nn5ccccc45)n3)C2)cc1` [I-9, (R,E)-4-(dimethylamino)-N-(4-(3-((4-(2-phenylpyrazolo[1,5-a]pyridin-3-yl)pyrimidin-2-yl)amino)azepane-1-carbonyl)phenyl)but-2-enamide]: 403 nM, 15.9 nM and 96.1 nM.
In the case of `CN(C)CCCC(=O)Nc1ccc(C(=O)N2CCCC[C@@H](Nc3nccc(-c4c(-c5ccccc5)nn5ccccc45)n3)C2)cc1` [I-10, (R)-4-(dimethylamino)-N-(4-(3-((4-(2-phenylpyrazolo[1,5-a]pyridin-3-yl)pyrimidin-2-yl)amino)azepane-1-carbonyl)phenyl)butanamide], the IC50 at JNK1 was determined as 243 nM; against JNK2 it was 7.88 nM; against JNK3 it was 48.1 nM.
On the same counts, the results for `CN(C)C/C=C/C(=O)Nc1ccc(C(=O)N2CC[C@H](Nc3nccc(-c4c(-c5ccccc5)nn5ccccc45)n3)C2)cc1` [I-11, (S,E)-4-(dimethylamino)-N-(4-(3-((4-(2-phenylpyrazolo[1,5-a]pyridin-3-yl)pyrimidin-2-yl)amino)pyrrolidine-1-carbonyl)phenyl)but-2-enamide] are 152 nM, 4.91 nM and 51.4 nM.
On the same counts, the results for `CN(C)CCCC(=O)Nc1ccc(C(=O)N2CC[C@H](Nc3nccc(-c4c(-c5ccccc5)nn5ccccc45)n3)C2)cc1` [I-12, (S)-4-(dimethylamino)-N-(4-(3-((4-(2-phenylpyrazolo[1,5-a]pyridin-3-yl)pyrimidin-2-yl)amino)pyrrolidine-1-carbonyl)phenyl)butanamide] are 320 nM, 17.6 nM and 110 nM.
For `CN(C)C/C=C/C(=O)Nc1ccc(C(=O)N2CCCC[C@H](Nc3nccc(-c4c(-c5ccccc5)nn5ccccc45)n3)C2)cc1` [I-13, (S,E)-4-(dimethylamino)-N-(4-(3-((4-(2-phenylpyrazolo[1,5-a]pyridin-3-yl)pyrimidin-2-yl)amino)azepane-1-carbonyl)phenyl)but-2-enamide], the IC50 against JNK1 worked out at 308 nM; against JNK2, 31 nM; at JNK3 it was 20 nM.
On the same counts, the results for `CN(C)CCCC(=O)Nc1ccc(C(=O)N2CCCC[C@H](Nc3nccc(-c4c(-c5ccccc5)nn5ccccc45)n3)C2)cc1` [I-14, (S)-4-(dimethylamino)-N-(4-(3-((4-(2-phenylpyrazolo[1,5-a]pyridin-3-yl)pyrimidin-2-yl)amino)azepane-1-carbonyl)phenyl)butanamide] are 314 nM, 29 nM and 252 nM.
On the same counts, the results for `CN(C)C/C=C/C(=O)Nc1ccc(C(=O)NC2CCCC(Nc3nccc(-c4c(-c5ccccc5)nn5ccccc45)n3)C2)cc1` (stereo not drawn) [I-15, (E)-4-(4-(dimethylamino)but-2-enamido)-N-(3-((4-(2-phenylpyrazolo[1,5-a]pyridin-3-yl)pyrimidin-2-yl)amino)cyclohexyl)benzamide] are 481 nM, 38.9 nM and 40.3 nM.
On the same counts, the results for `CN(C)C/C=C/C(=O)Nc1cccc(C(=O)N2CC[C@H](Nc3nccc(-c4c(-c5ccccc5)nn5ccccc45)n3)C2)c1` [I-16, (S,E)-4-(dimethylamino)-N-(3-(3-((4-(2-phenylpyrazolo[1,5-a]pyridin-3-yl)pyrimidin-2-yl)amino)pyrrolidine-1-carbonyl)phenyl)but-2-enamide] are 37.6 nM, 6.94 nM and 10.9 nM.
With `CN(C)C/C=C/C(=O)Nc1ccc(C(=O)N2CC3CC(Nc4nccc(-c5c(-c6ccccc6)nn6ccccc56)n4)C2C3)cc1` (stereo not drawn) [I-17, (E)-4-(dimethylamino)-N-(4-(6-((4-(2-phenylpyrazolo[1,5-a]pyridin-3-yl)pyrimidin-2-yl)amino)-2-azabicyclo[2.2.1]heptane-2-carbonyl)phenyl)but-2-enamide], the IC50 against JNK1 was more than 10000 nM; at JNK2, 7890 nM; on JNK3 it was more than 10000 nM.
For `CN(C)C/C=C/C(=O)Nc1ccc(NC(=O)N2CC[C@H](Nc3nccc(-c4c(-c5ccccc5)nn5ccccc45)n3)C2)cc1` [I-18, (S,E)-N-(4-(4-(dimethylamino)but-2-enamido)phenyl)-3-((4-(2-phenylpyrazolo[1,5-a]pyridin-3-yl)pyrimidin-2-yl)amino)pyrrolidine-1-carboxamide], the IC50 was determined as 99.3 nM against JNK1, 12.4 nM on JNK2 and 15.7 nM on JNK3.
The matching figures for `CN(C)C/C=C/C(=O)Nc1ccc2c(N3CC[C@H](Nc4nccc(-c5c(-c6ccccc6)nn6ccccc56)n4)C3)nccc2c1` [I-20, (S,E)-4-(dimethylamino)-N-(1-(3-((4-(2-phenylpyrazolo[1,5-a]pyridin-3-yl)pyrimidin-2-yl)amino)pyrrolidin-1-yl)isoquinolin-6-yl)but-2-enamide]: 168 nM, 10 nM and 12 nM.
Take `CN(C)C/C=C/C(=O)Nc1ccc(C(=O)N2CC[C@H](Nc3ncc(Cl)c(-c4c(-c5ccccc5)nn5ccccc45)n3)C2)cc1` [I-21, (S,E)-N-(4-(3-((5-chloro-4-(2-phenylpyrazolo[1,5-a]pyridin-3-yl)pyrimidin-2-yl)amino)pyrrolidine-1-carbonyl)phenyl)-4-(dimethylamino)but-2-enamide]: the IC50 at JNK1 stood at 3360 nM; on JNK2 it was 585 nM; against JNK3 it was 359 nM.
Regarding `CN(C)C/C=C/C(=O)Nc1ccc(C(=O)N2CC[C@H](Nc3nccc(-c4c(-c5ccc(F)cc5)nn5ccccc45)n3)C2)cc1` [I-22, (S,E)-4-(dimethylamino)-N-(4-(3-((4-(2-(4-fluorophenyl)pyrazolo[1,5-a]pyridin-3-yl)pyrimidin-2-yl)amino)pyrrolidine-1-carbonyl)phenyl)but-2-enamide], the IC50 against JNK1 stood at 85 nM; at JNK2, 5.57 nM; against JNK3 it was 3.87 nM.
For `Cc1cccn2nc(-c3ccccc3)c(-c3ccnc(N[C@H]4CCN(C(=O)c5ccc(NC(=O)/C=C/CN(C)C)cc5)C4)n3)c12` [I-23, (S,E)-4-(dimethylamino)-N-(4-(3-((4-(4-methyl-2-phenylpyrazolo[1,5-a]pyridin-3-yl)pyrimidin-2-yl)amino)pyrrolidine-1-carbonyl)phenyl)but-2-enamide], the IC50 worked out at 1140 nM against JNK1, 142 nM at JNK2 and 396 nM against JNK3.

The term IC50 denotes the midpoint of a concentration-inhibition curve. The low end stands for inhibition by little substance, the high end for a need for much substance.
